From patent publication US9156811B2 (priority 2008, dated 2015)
Read-outs that look alike come from different tables or passages of the source.

Experiments:
[1] = molecular target: T. brucei N-myristoyl transferase (Trypanosoma brucei brucei (strain 927/4 GUTat10.1), UniProt Q388H8); experiment: biochemical; type: biochemical; details: read-out: IC50 (μM) NMT Enzyme
[2] = system: Trypanosome (T. brucei brucei); experiment: In-vitro antitrypanosomal efficacy assay (cell growth, resazurin); type: cell-based; details: T. brucei cell growth
[3] = value printed without enzyme tag in the NMT Enzyme column (taken as T. brucei NMT)
[4] = value with no enzyme tag in the cell, taken as T. brucei NMT

Chain of T. brucei N-myristoyl transferase (Q388H8 1-446): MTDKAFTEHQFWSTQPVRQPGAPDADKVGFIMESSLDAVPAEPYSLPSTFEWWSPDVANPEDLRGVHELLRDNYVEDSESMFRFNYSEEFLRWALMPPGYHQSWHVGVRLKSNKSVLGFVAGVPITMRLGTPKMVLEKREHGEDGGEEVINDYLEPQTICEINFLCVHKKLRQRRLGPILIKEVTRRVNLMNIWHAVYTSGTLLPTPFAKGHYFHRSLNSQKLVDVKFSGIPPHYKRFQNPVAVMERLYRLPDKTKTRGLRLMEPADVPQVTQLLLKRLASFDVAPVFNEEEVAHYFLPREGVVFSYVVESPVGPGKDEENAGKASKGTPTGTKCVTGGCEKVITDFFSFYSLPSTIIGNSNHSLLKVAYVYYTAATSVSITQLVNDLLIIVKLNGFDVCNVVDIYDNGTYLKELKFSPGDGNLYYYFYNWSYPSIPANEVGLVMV

IC50 [1, 3] [µM] | IC50 [1, 4] [µM] | Structure (SMILES) | ED50 (μM) T. brucei [2] [µM]
3.8 |  | Cc1nn(C)c(C)c1N[S+](=O)([O-])c1ccc(CNc2ccccc2)cc1 [DDD73509] | >1
26.9 |  | Cc1nn(C)c(C)c1N[S+](=O)([O-])c1ccc(CNc2noc(C)c2C)cc1 [DDD73510] | >1
6.1 |  | Cc1nn(C)c(C)c1N[S+](=O)([O-])c1ccc(Cn2cnc3ccccc32)cc1 [DDD73512] | >1
5.7 |  | COc1ccc(NCc2ccc([S+](=O)([O-])Nc3c(C)nn(C)c3C)cc2)cc1 [DDD73513] | >1
44 |  | Cc1nn(C)c(C)c1N[S+](=O)([O-])c1ccc(CNC2CCc3ccccc32)cc1 (stereo not shown) [DDD85592] | >1
41.7 |  | Cc1nn(C)c(C)c1N[S+](=O)([O-])c1ccc(CN2CCCc3ccccc32)cc1 [DDD85596] | >1
2.4 |  | Cc1nn(C)c(C)c1N[S+](=O)([O-])c1ccc(CSCc2ccccc2)cc1 [DDD85599] | >1
3.3 |  | COc1ccc(SCc2ccc([S+](=O)([O-])Nc3c(C)nn(C)c3C)cc2)cc1OC [DDD85604] | >1
69.5 |  | Cc1nn(C)c(C)c1N[S+](=O)([O-])c1ccc(CSc2ccc(C(C)(C)C)cc2)cc1 [DDD85609] | >1
61.6 |  | Cc1nn(C)c(C)c1N[S+](=O)([O-])c1ccc(CSc2ccc(Cl)cc2Cl)cc1 [DDD85610] | >1
0.36 |  | Cc1nn(C)c(C)c1N[S+](=O)([O-])c1ccc(N(C)Cc2ccc(CN(C)C)cc2)nc1 [DDD85624] | 1.5
0.61 |  | Cc1nn(C)c(C)c1N[S+](=O)([O-])c1ccc(N(C)CCCN(C)C)nc1 [DDD85626] | 1.9
11.1 |  | Cc1nn(C)c(C)c1N[S+](=O)([O-])c1ccc(COCCn2ccnc2)cc1 [DDD85628] | >1
2.4 |  | Cc1nn(C)c(C)c1N[S+](=O)([O-])c1ccc(NCCCN(C)C)nc1 [DDD85629] | 38.0
 | 2 | Cc1nn(C)c(C)c1N[S+](=O)([O-])c1ccc(NCCCn2ccnc2)nc1 [DDD85633] | >50
 | 3.3 | Cc1nn(C)c(C)c1N[S+](=O)([O-])c1ccc(CNCCN(C)C)cc1 [DDD85640] | >50
 | 8 | Cc1nn(C)c(C)c1N[S+](=O)([O-])c1ccc(CNCCN2CCCCC2)cc1 [DDD85643] | >1
 | 66.1 | Cc1nn(C)c(C)c1N[S+](=O)([O-])c1ccc(COCCCN(C)C)cc1 [DDD85647] | >1
 | 47.7 | Cc1nn(C)c(C)c1N[S+](=O)([O-])c1ccc(COCCCN2CCN(C)CC2)cc1 [DDD85648] | >1
 | 40 | Cc1nn(C)c(C)c1N[S+](=O)([O-])c1ccc(COCCN2CCN(C)CC2)cc1 [DDD85649] | >1
 | 52.6 | Cc1nn(C)c(C)c1N[S+](=O)([O-])c1ccc(COCCCCN(C)C)cc1 [DDD85650] | >1
 | 6 | Cc1nn(C)c(C)c1N[S+](=O)([O-])c1ccc(-c2cccc(C=O)c2)cc1 [DDD86210] | >1
 | 1 | Cc1nn(C)c(C)c1N[S+](=O)([O-])c1ccc(NCCO)nc1 [DDD86293] | >1

The remaining lines, values behind:

Structure (SMILES) | IC50 [1, 3] [µM] | IC50 [1, 4] [µM] | ED50 (μM) T. brucei [2] [µM]
Cc1nn(C)c(C)c1N[S+](=O)([O-])c1ccc(CNc2ccc(-c3ccccn3)cc2)cc1 [DDD73508] | 5.2 |  | >1
Cc1nn(C)c(C)c1N[S+](=O)([O-])c1ccc(COCc2ccc3ccccc3c2)cc1 [DDD73511] | > 100 |  | >1
Cc1nn(C)c(C)c1N[S+](=O)([O-])c1ccc(CSc2ccc3ccccc3c2)cc1 [DDD73516] | 47.6 |  | >1
Cc1nn(C)c(C)c1N(C1CC1)[S+](=O)([O-])c1c(Cl)cc(Br)cc1Cl [DDD85591] | 0.59 |  | 5.3
Cc1nn(C)c(C)c1N(CCCO)S(=O)(=O)c1c(Cl)cc(Br)cc1Cl [DDD85593, 4-Bromo-2,6-dichloro-N-(3-hydroxy-propyl)-N-(1,3,5-trimethyl-1H-pyrazol-4-yl)-benzenesulfonamide] | 0.36 |  | 3.5
CCCN(c1c(C)nn(C)c1C)[S+](=O)([O-])c1c(Cl)cc(Br)cc1Cl [DDD85594] | 3.2 |  | 21.0
Cc1nn(C)c(C)c1N[S+](=O)([O-])c1ccc(N2CCc3ccccc32)nc1 [DDD85597] | 8 |  | >1
Cc1nn(C)c(C)c1N[S+](=O)([O-])c1ccc(N2Cc3ccccc3C2)nc1 [DDD85598] | 18.2 |  | >1
Cc1nn(C)c(C)c1N(C1CCCC1)[S+](=O)([O-])c1c(Cl)cc(Br)cc1Cl [DDD85600] | 1.9 |  | 5.9
Cc1nn(C)c(C)c1N(C)[S+](=O)([O-])c1ccc(N2CCc3c(N)cccc3C2)nc1 [DDD85605] | 0.57 |  | 2.4
Cc1nn(C)c(C)c1N(CCc1ccccc1)[S+](=O)([O-])c1c(Cl)cc(Br)cc1Cl [DDD85606] | 4.9 |  | 3.6
Cc1nn(C)c(C)c1N(CCO)[S+](=O)([O-])c1c(Cl)cc(Br)cc1Cl [DDD85607] | 1.1 |  | 7.1
Cc1ncccc1N[S+](=O)([O-])c1ccc(NCc2ccc3[nH]ccc3c2)nc1 [DDD85611] | 7.2 |  | >1
Cc1nn(C)c(C)c1N[S+](=O)([O-])c1ccc(NC2CCc3ccccc32)nc1 (stereo not shown) [DDD85613] | 6.6 |  | >1
Cc1nn(C)c(C)c1N(CC1CC1)[S+](=O)([O-])c1c(Cl)cc(Br)cc1Cl [DDD85625] | 0.67 |  | 4.6
Cc1nn(C)c(C)c1N[S+](=O)([O-])c1ccc(NCCCN2CCN(C)CC2)nc1 [DDD85627] | 0.12 |  | 0.62
COc1cc(C)c([S+](=O)([O-])Nc2ccc(C)nc2C)c(C)c1C [DDD85634] |  | 27.9 | >1
Cc1nn(C)c(C)c1N[S+](=O)([O-])c1ccc(NCc2cccc(CN3CCCCC3)c2)nc1 [DDD85651] |  | 1.8 | 9.8
Cc1nn(C)c(C)c1N[S+](=O)([O-])c1ccc(NCCCN2CCN(c3ccccc3)CC2)nc1 [DDD86291] |  | 1 | >1
Cc1nn(C)c(C)c1NS(=O)(=O)c1c(Cl)cc(-c2ccnc(N3CCC(N(C)C)C3)c2)cc1Cl (stereo not shown) [DDD86292, 2,6-Dichloro-4-[2-(3-dimethylamino-pyrrolidin-1-yl)-pyridin-4-yl]-N-(1,3,5-trimethyl-1 H-pyrazol-4-yl)-benzenesulfonamide] |  | 1 | >1
Cc1nn(C)c(C)c1N[S+](=O)([O-])c1ccc(NCCCNC2CCN(Cc3ccccc3)C2)nc1 (stereo not shown) [DDD86295] |  | 1 | >1
